This is an account of results in the supplement of paper PMC10307832.

In the first assay the test system is H3255. In words: relative viability (nuclei count vs DMSO), 5 days (fraction); higher = more cells survive. To be noted: first compound 2 µM. In a few lines:
(§1)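 Lung cancer cell lines in 1536-well plates were dosed by pin tool the day after seeding, either with one drug alone or with a fixed anchor-drug dose plus five library-drug doses (not always all listed) in √10 steps. After 5 days, cells were fixed and their nuclei stained in one step (final 0.05% Triton X-100, 1% formaldehyde, 1 ug/ml Hoechst), then counted on 4× images. Relative viability is the nuclei count in treated wells divided by that in vehicle wells. Values are medians of duplicate plates.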
With `COCC1(CO)C(=O)C2CCN1CC2` (stereo unspecified) [PRIMA-1MET] + C[C@@H](Oc1cc(-c2cnn(C3CCNCC3)c2)cnc1N)c1c(Cl)ccc(F)c1Cl [Crizotinib] (partner 1 µM), the relative viability came out at 0.77.

The assay is the same for the next values; noted with them: first compound 6.325 µM.
Take `COCC1(CO)C(=O)C2CCN1CC2` (stereo unspecified) [PRIMA-1MET] + O=C(CCCCCCC(=O)Nc1ccccc1)NO [Vorinostat] (partner 1 µM): the relative viability turned out to be 0.901.

Compound `COCC1(CO)C(=O)C2CCN1CC2` (stereo unspecified) [PRIMA-1MET] + C[C@]1(O)C[C@@H](c2nc(-c3ccc4ccc(-c5ccccc5)nc4c3)c3c(N)nccn32)C1 [Linsitinib] (partner 1 µM) displayed a relative viability of 1.01.

In the case of `COCC1(CO)C(=O)C2CCN1CC2` (stereo unspecified) [PRIMA-1MET] + Cc1cc(Nc2cc(N3CCN(C)CC3)nc(Sc3ccc(NC(=O)C4CC4)cc3)n2)n[nH]1 [Tozasertib] (partner 0.1 µM), the relative viability is 0.615.

Compound `COCC1(CO)C(=O)C2CCN1CC2` (stereo unspecified) [PRIMA-1MET] + Cc1nc(NC(=O)N2CCC[C@H]2C(N)=O)sc1-c1ccnc(C(C)(C)C(F)(F)F)c1 [Alpelisib] (partner 2 µM) came in with a relative viability of 0.793.

For `COCC1(CO)C(=O)C2CCN1CC2` (stereo unspecified) [PRIMA-1MET] + C[C@@H](Oc1cc(-c2cnn(C3CCNCC3)c2)cnc1N)c1c(Cl)ccc(F)c1Cl [Crizotinib] (partner 1 µM), the relative viability is 0.991.

Staying with this assay, now noted: first compound 20 µM.
The compound `COCC1(CO)C(=O)C2CCN1CC2` (stereo unspecified) [PRIMA-1MET] + O=C(CCCCCCC(=O)Nc1ccccc1)NO [Vorinostat] (partner 1 µM) yielded a relative viability of 0.656.

`COCC1(CO)C(=O)C2CCN1CC2` (stereo unspecified) [PRIMA-1MET] + C[C@]1(O)C[C@@H](c2nc(-c3ccc4ccc(-c5ccccc5)nc4c3)c3c(N)nccn32)C1 [Linsitinib] (partner 1 µM) showed a relative viability of 0.918.

`COCC1(CO)C(=O)C2CCN1CC2` (stereo unspecified) [PRIMA-1MET] + Cc1cc(Nc2cc(N3CCN(C)CC3)nc(Sc3ccc(NC(=O)C4CC4)cc3)n2)n[nH]1 [Tozasertib] (partner 0.1 µM) returned a relative viability of 0.505.

`COCC1(CO)C(=O)C2CCN1CC2` (stereo unspecified) [PRIMA-1MET] + Cc1nc(NC(=O)N2CCC[C@H]2C(N)=O)sc1-c1ccnc(C(C)(C)C(F)(F)F)c1 [Alpelisib] (partner 2 µM) showed a relative viability of 0.666.

On to `COCC1(CO)C(=O)C2CCN1CC2` (stereo unspecified) [PRIMA-1MET] + C[C@@H](Oc1cc(-c2cnn(C3CCNCC3)c2)cnc1N)c1c(Cl)ccc(F)c1Cl [Crizotinib] (partner 1 µM), for which the relative viability came to 0.898.

The test system of a further assay is NCI-H1437. The assay is described as above. To be noted: first compound 0.2 µM. In a few lines:
as §1
On to `COCC1(CO)C(=O)C2CCN1CC2` (stereo unspecified) [PRIMA-1MET] + O=C(CCCCCCC(=O)Nc1ccccc1)NO [Vorinostat] (partner 1 µM), for which the relative viability is 0.951.

In turn, `COCC1(CO)C(=O)C2CCN1CC2` (stereo unspecified) [PRIMA-1MET] + C[C@]1(O)C[C@@H](c2nc(-c3ccc4ccc(-c5ccccc5)nc4c3)c3c(N)nccn32)C1 [Linsitinib] (partner 1 µM) came in with a relative viability of 1.08.

On to `COCC1(CO)C(=O)C2CCN1CC2` (stereo unspecified) [PRIMA-1MET] + Cc1cc(Nc2cc(N3CCN(C)CC3)nc(Sc3ccc(NC(=O)C4CC4)cc3)n2)n[nH]1 [Tozasertib] (partner 0.1 µM), for which the relative viability worked out at 0.41.

Regarding `COCC1(CO)C(=O)C2CCN1CC2` (stereo unspecified) [PRIMA-1MET] + Cc1nc(NC(=O)N2CCC[C@H]2C(N)=O)sc1-c1ccnc(C(C)(C)C(F)(F)F)c1 [Alpelisib] (partner 2 µM), the relative viability was found to be 1.

Compound `COCC1(CO)C(=O)C2CCN1CC2` (stereo unspecified) [PRIMA-1MET] + C[C@@H](Oc1cc(-c2cnn(C3CCNCC3)c2)cnc1N)c1c(Cl)ccc(F)c1Cl [Crizotinib] (partner 1 µM) returned a relative viability of 1.07.

Still in this assay, the particulars now being: first compound 0.6325 µM.
Compound `COCC1(CO)C(=O)C2CCN1CC2` (stereo unspecified) [PRIMA-1MET] + O=C(CCCCCCC(=O)Nc1ccccc1)NO [Vorinostat] (partner 1 µM) yielded a relative viability of 0.685.

`COCC1(CO)C(=O)C2CCN1CC2` (stereo unspecified) [PRIMA-1MET] + C[C@]1(O)C[C@@H](c2nc(-c3ccc4ccc(-c5ccccc5)nc4c3)c3c(N)nccn32)C1 [Linsitinib] (partner 1 µM) yielded a relative viability of 0.982.

Compound `COCC1(CO)C(=O)C2CCN1CC2` (stereo unspecified) [PRIMA-1MET] + Cc1cc(Nc2cc(N3CCN(C)CC3)nc(Sc3ccc(NC(=O)C4CC4)cc3)n2)n[nH]1 [Tozasertib] (partner 0.1 µM) displayed a relative viability of 0.408.

On to `COCC1(CO)C(=O)C2CCN1CC2` (stereo unspecified) [PRIMA-1MET] + Cc1nc(NC(=O)N2CCC[C@H]2C(N)=O)sc1-c1ccnc(C(C)(C)C(F)(F)F)c1 [Alpelisib] (partner 2 µM), for which the relative viability was found to be 0.972.

The compound `COCC1(CO)C(=O)C2CCN1CC2` (stereo unspecified) [PRIMA-1MET] + C[C@@H](Oc1cc(-c2cnn(C3CCNCC3)c2)cnc1N)c1c(Cl)ccc(F)c1Cl [Crizotinib] (partner 1 µM) came in with a relative viability of 0.896.

Still in this assay, the particulars now being: first compound 2 µM.
For the compound `COCC1(CO)C(=O)C2CCN1CC2` (stereo unspecified) [PRIMA-1MET] + O=C(CCCCCCC(=O)Nc1ccccc1)NO [Vorinostat] (partner 1 µM), the relative viability came to 0.792.

As to `COCC1(CO)C(=O)C2CCN1CC2` (stereo unspecified) [PRIMA-1MET] + C[C@]1(O)C[C@@H](c2nc(-c3ccc4ccc(-c5ccccc5)nc4c3)c3c(N)nccn32)C1 [Linsitinib] (partner 1 µM), the relative viability amounted to 1.02.

Turning to `COCC1(CO)C(=O)C2CCN1CC2` (stereo unspecified) [PRIMA-1MET] + Cc1cc(Nc2cc(N3CCN(C)CC3)nc(Sc3ccc(NC(=O)C4CC4)cc3)n2)n[nH]1 [Tozasertib] (partner 0.1 µM), the relative viability came to 0.407.

On to `COCC1(CO)C(=O)C2CCN1CC2` (stereo unspecified) [PRIMA-1MET] + Cc1nc(NC(=O)N2CCC[C@H]2C(N)=O)sc1-c1ccnc(C(C)(C)C(F)(F)F)c1 [Alpelisib] (partner 2 µM), for which the relative viability was determined as 1.01.

On to `COCC1(CO)C(=O)C2CCN1CC2` (stereo unspecified) [PRIMA-1MET] + C[C@@H](Oc1cc(-c2cnn(C3CCNCC3)c2)cnc1N)c1c(Cl)ccc(F)c1Cl [Crizotinib] (partner 1 µM), for which the relative viability was 0.9.

Still in this assay, the particulars now being: first compound 6.325 µM.
`COCC1(CO)C(=O)C2CCN1CC2` (stereo unspecified) [PRIMA-1MET] + O=C(CCCCCCC(=O)Nc1ccccc1)NO [Vorinostat] (partner 1 µM) gave a relative viability of 0.939.

In turn, `COCC1(CO)C(=O)C2CCN1CC2` (stereo unspecified) [PRIMA-1MET] + C[C@]1(O)C[C@@H](c2nc(-c3ccc4ccc(-c5ccccc5)nc4c3)c3c(N)nccn32)C1 [Linsitinib] (partner 1 µM) showed a relative viability of 1.1.

As for `COCC1(CO)C(=O)C2CCN1CC2` (stereo unspecified) [PRIMA-1MET] + Cc1cc(Nc2cc(N3CCN(C)CC3)nc(Sc3ccc(NC(=O)C4CC4)cc3)n2)n[nH]1 [Tozasertib] (partner 0.1 µM), the relative viability is 0.411.

`COCC1(CO)C(=O)C2CCN1CC2` (stereo unspecified) [PRIMA-1MET] + Cc1nc(NC(=O)N2CCC[C@H]2C(N)=O)sc1-c1ccnc(C(C)(C)C(F)(F)F)c1 [Alpelisib] (partner 2 µM) gave a relative viability of 1.12.

Consider `COCC1(CO)C(=O)C2CCN1CC2` (stereo unspecified) [PRIMA-1MET] + C[C@@H](Oc1cc(-c2cnn(C3CCNCC3)c2)cnc1N)c1c(Cl)ccc(F)c1Cl [Crizotinib] (partner 1 µM), for which the relative viability was 0.991.
